From patent US5068358A, “Process for extracting N-methyl-2-pyrrolidone” (Hoechst Aktiengesellschaft, priority 1988, dated 1991)
Read-outs that look alike come from different tables or passages of the source.

Legend:
[1] = room temperature; cited from earlier work
[2] = type: physicochemical; details: nonylphenol
Protocol: From the group of the phenols as defined above and substituted by aliphatic radicals, those are advantageously selected for the use according to the invention, whose melting point is below 90° C., preferably below 50° C. and especially below 20°-30° C. A low melting point of the phenol derivatives used allows the process to be carried out at correspondingly low temperatures, which has a very favorable effect on the partition coefficient KD. KD is defined as follows: [formula]
The phases were then allowed to settle and were separated, and the concentration of NMP in the two phases was determined.
After the phases had been allowed to settle, these were separated, and the concentration of NMP in the two phases was determined.
Thereupon, the phases were allowed to settle and were separated, and the concentration of NMP in the two phases was determined.
[…] After the phases had been allowed to settle, these were separated, and the concentration of NMP in the two phases was determined.

[3] = Example 1a, feed 35% NMP, phase volume ratio 1:4, room temperature
[4] = Example 1b, feed 35% NMP, phase volume ratio 1:6, room temperature
[5] = Example 1c, feed 35% NMP, phase volume ratio 1:10, room temperature
[6] = Example 1e, feed 33% NMP, phase ratio 1:2, 70° C.
[7] = Example 1f, feed 33% NMP, phase volume ratio 1:10, 70° C.
[8] = Example 1d, feed 9% NMP, phase volume ratio 1:1, room temperature

Aqueous raffinate phase (% by weight of NMP) [2, 3]	Organic extract phase (% by weight of NMP) [2, 3]	Aqueous raffinate phase (% by weight of NMP) [2, 4]	Organic extract phase (% by weight of NMP) [2, 4]	Aqueous raffinate phase (% by weight of NMP) [2, 5]	Organic extract phase (% by weight of NMP) [2, 5]	Aqueous raffinate phase (% by weight of NMP) [2, 6]	Organic extract phase (% by weight of NMP) [2, 6]	Aqueous raffinate phase (% by weight of NMP) [2, 7]	Organic extract phase (% by weight of NMP) [2, 7]	Aqueous raffinate phase (% by weight of NMP) [2, 8]	Organic extract phase (% by weight of NMP) [2, 8]	SMILES	solubility in water [1]
–	–	–	–	–	–	–	–	–	–	–	–	Cc1cccc(O)c1 [m-cresol]	2.3 % by weight
0.75 % by weight	8.2 % by weight	0.30 % by weight	5.8 % by weight	0.12 % by weight	3.4 % by weight	9.0 % by weight	12.4 % by weight	1.0 % by weight	3.4 % by weight	0.64 % by weight	8.3 % by weight	CN1CCCC1=O [NMP, N-methyl-2-pyrrolidone]	–
–	–	–	–	–	–	–	–	–	–	–	–	Cc1cc(C)cc(O)c1 [3,5-dimethylphenol]	0.49 % by weight
